# Data: ChEMBL document CHEMBL1649287, “Postantibiotic effect of ceftaroline against gram-positive organisms” (2009)
# Experiments:
# Streptococcus pneumoniae = experiment: Antimicrobial activity against Streptococcus pneumoniae ATCC 6306 assessed as post antibiotic effect at 10 times MIC after 2 hr by plate counting method; type: functional
# Staphylococcus aureus = experiment: Antimicrobial activity against Staphylococcus aureus ATCC 29213 assessed as post antibiotic effect at 10 times MIC after 2 hr by plate counting method; type: functional
structure (smiles),measurement,setting,value
CO/N=C(\C(=O)N[C@@H]1C(=O)N2C(C(=O)O)=C(CSc3nc(=O)c(O)nn3C)CS[C@H]12)c1csc(N)n1 [CEFTRIAXONE],PAE,Streptococcus pneumoniae,0.7 h
same,PAE,Staphylococcus aureus,2.3 h
